Data from ChEMBL document CHEMBL1770098, “Pyridine-derived thiosemicarbazones and their tin(IV) complexes with antifungal activity against Candida spp” (2011).
≈ marks a conversion by molar mass, not a printed value.

What was measured:
Assay type in all cases: functional
[1] = test system: Pichia kudriavzevii; assay: Antifungal activity against Candida krusei ATCC 200298 after 24 hrs; details: ATCC 200298, 24 h
[2] = test system: Nakaseomyces glabratus; assay: Antifungal activity against Candida glabrata ATCC 90030 after 24 hrs; details: ATCC 90030, 24 h
[3] = test system: Candida parapsilosis; assay: Antifungal activity against Candida parapsilosis […] after 24 hrs; details: Lodderomyces parapsilosis
[4] = test system: Candida albicans; assay: Antifungal activity against Candida albicans ATCC 18804 after 24 hrs; details: ATCC 18804, 24 h

| Compound | MIC [1] | MIC [2] | MIC [3] | MIC [4] |
| --- | --- | --- | --- | --- |
| O=[N+]([O-])c1ccccc1NC(=S)N/N=C(\c1ccccc1)c1ccccn1 | 21.2 µM (≈ 8 µg/mL) | 21.2 µM (≈ 8 µg/mL) | 42.4 µM (≈ 16 µg/mL) | 21.2 µM (≈ 8 µg/mL) |
| C/C(=N\NC(=S)Nc1ccccc1[N+](=O)[O-])c1ccccn1 | 6.34 µM (≈ 2 µg/mL) | 6.34 µM (≈ 2 µg/mL) | 6.34 µM (≈ 2 µg/mL) | 6.34 µM (≈ 2 µg/mL) |
| Fc1ccccc1NC(=S)N/N=C(\c1ccccc1)c1ccccn1 | 45.7 µM (≈ 16 µg/mL) | 11.4 µM (≈ 4 µg/mL) | 45.7 µM (≈ 16 µg/mL) | 45.7 µM (≈ 16 µg/mL) |
| C/C(=N\NC(=S)Nc1ccccc1Cl)c1ccccn1 | 13.1 µM (≈ 4 µg/mL) | 13.1 µM (≈ 4 µg/mL) | 26.2 µM (≈ 8 µg/mL) | 13.1 µM (≈ 4 µg/mL) |
| C/C(=N\NC(=S)Nc1ccccc1F)c1ccccn1 | 13.9 µM (≈ 4 µg/mL) | 6.94 µM (≈ 2 µg/mL) | 27.7 µM (≈ 8 µg/mL) | 13.9 µM (≈ 4 µg/mL) |
| S=C(N/N=C(\c1ccccc1)c1ccccn1)Nc1ccccc1Cl | 21.8 µM (≈ 8 µg/mL) | 21.8 µM (≈ 8 µg/mL) | 43.6 µM (≈ 16 µg/mL) | 21.8 µM (≈ 8 µg/mL) |
| OC(Cn1cncn1)(Cn1cncn1)c1ccc(F)cc1F [FLUCONAZOLE] | 104 µM (≈ 32 µg/mL) | 6.53 µM (≈ 2 µg/mL) | 6.53 µM (≈ 2 µg/mL) | 6.53 µM (≈ 2 µg/mL) |
